Literature values, collected in patent publication US20260207488A1, “Liquid pharmaceutical composition containing flecainide and process for the preparation thereof” (Colonis Pharma Ltd, priority 2022, published 2026).

Tests used:
[1] = water

Question: Which results are given for `CC(=O)O.O=C(NCC1CCCCN1)c1cc(OCC(F)(F)F)ccc1OCC(F)(F)F` (centres unmarked) [Flecainide Acetate, N-(2-piperidinylmethyl)-2,5-bis(2,2,2-trifluoroethoxy)benzamide monoacetate]?
Answer: solubility (BCS): high solubility; aqueous solubility [1]: about 48.0 mg/mL
